Source: PMC7403315, “Cyclic peptide FXII inhibitor provides safe anticoagulation in a thrombosis model and in artificial lungs” (Nature Communications, 2020)
Values joined by “and” are separate entries in the source; they are usually repeats but may differ in a detail not shown here. Equal entries are not always repeated.

What was measured:
Assay type in all cases: biochemical
[1] = target: T1, Mouse α-FXIIa (Mus musculus, UniProt Q80YC5); experiment: FXIIa protease inhibition assay with fluorogenic substrate Boc-Gln-Gly-Arg-AMC
T1 construct: Mouse α-FXIIa; purchased Molecular Innovations MFXIIA
T1 sequence (Q80YC5 355-597 limits assumed): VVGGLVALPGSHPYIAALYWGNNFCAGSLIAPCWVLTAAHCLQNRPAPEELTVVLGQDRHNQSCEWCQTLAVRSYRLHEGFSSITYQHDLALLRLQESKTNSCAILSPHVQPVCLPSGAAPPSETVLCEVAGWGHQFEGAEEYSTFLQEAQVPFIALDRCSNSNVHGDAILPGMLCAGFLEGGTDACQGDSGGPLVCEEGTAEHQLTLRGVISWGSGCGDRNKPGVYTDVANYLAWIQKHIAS
T1 sequence (Q80YC5 20-354 limits assumed): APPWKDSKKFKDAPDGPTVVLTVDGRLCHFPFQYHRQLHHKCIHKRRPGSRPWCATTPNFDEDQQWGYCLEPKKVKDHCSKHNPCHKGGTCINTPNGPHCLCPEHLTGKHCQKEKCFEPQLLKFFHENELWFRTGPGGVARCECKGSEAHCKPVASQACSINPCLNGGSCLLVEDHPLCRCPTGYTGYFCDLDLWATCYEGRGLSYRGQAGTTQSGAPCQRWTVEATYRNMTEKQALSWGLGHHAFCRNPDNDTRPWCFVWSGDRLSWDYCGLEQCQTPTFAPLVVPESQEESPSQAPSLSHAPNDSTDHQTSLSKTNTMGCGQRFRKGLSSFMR
Method: (§1) In order to test the inhibitory activity of peptides without prior purification, we developed the following method. […] After solid-phase peptide synthesis, cleavage, and ether precipitation, the peptides were chemically cyclized and their Ki values were determined in a FXIIa activity assay using a fluorogenic substrate.
(§2) Protease inhibition assays
(§3) The inhibitory activity of peptides was determined by measuring the residual protease activity with a fluorogenic substrate. The assay was performed in buffer containing 10 mM Tris-Cl, pH […]
(§4) 1% (v/v) DMSO in a volume of 150 µl. FXIIa activity was measured with the fluorogenic substrate Boc-Gln-Gly-Arg-AMC (Bachem) at a final concentration of 50 µM. Mouse α-FXIIa (Molecular Innovations cat # MFXIIA) and human β-FXIIa (Molecular Innovations cat # HFXIIAB) were used at final concentrations of 0.4 nM. The reaction was pipetted as follows: 50 µl of bicyclic peptide in assay buffer were added to 50 µl of FXIIa in assay buffer and incubated for 10 minutes at 25°C before 50 µl of 150 µM fluorogenic substrate in assay buffer were added to measure the residual protease activity with an Infinite M200Pro fluorescence plate reader (excitation at 368 nm, emission at 467 nm; Tecan) for a period of 30 minutes with a read every minute at 25°C. The Tecan software i-control (version 1.1) was used for data analysis. Stock solutions of 1 mM bicyclic peptide were prepared by either dissolving the unpurified cyclization reaction with water or by dissolving purified and lyophilized peptide in water. The bicyclic peptides were serially diluted two-fold using assay buffer. Sigmoidal curves were fitted to the data using the following dose response equation (1), wherein x = peptide concentration, y = % protease activity, and p = Hill slope. IC50 values were derived from the fitted curve.
(§5) The inhibition constants (Ki) were calculated according to the equation of Cheng and Prusoff, Ki = IC50/(1+([S]0/Km), wherein IC50 is the functional strength of the inhibitor, [S]0 is the total substrate concentration, and Km is the Michaelis-Menten constant. […]
(§6) the substrate Boc-Gln-Gly-Arg-AMC. […]

[2] = target: T2, human β-FXIIa (Homo sapiens, UniProt P00748); experiment: as above
T2 construct: human β-FXIIa (Molecular Innovations cat #); purchased Molecular Innovations HFXIIAB; host or cells: human blood
T2 sequence (P00748 373-615 limits assumed, other chains not shown): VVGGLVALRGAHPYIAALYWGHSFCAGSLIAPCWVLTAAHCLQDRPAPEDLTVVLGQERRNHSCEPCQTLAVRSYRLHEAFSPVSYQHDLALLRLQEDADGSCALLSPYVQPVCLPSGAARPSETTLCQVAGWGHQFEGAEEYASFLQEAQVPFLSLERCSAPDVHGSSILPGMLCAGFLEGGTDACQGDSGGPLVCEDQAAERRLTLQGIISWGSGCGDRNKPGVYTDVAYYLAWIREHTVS
Method: as §1, §2, §3, §4, §5, §6

[3] = target: T3, Recombinant mouse FXII (Mus musculus, UniProt Q80YC5); experiment: Inhibition of recombinant FXIIa (rFXIIa); conditions: Recombinant mouse FXII, individual plates, read-out: Residual activity (%)
T3 sequence (Q80YC5 355-597 limits assumed): T1 sequence (Q80YC5 355-597 limits assumed)
T3 sequence (Q80YC5 20-354 limits assumed): T1 sequence (Q80YC5 20-354 limits assumed)

[4] = crude, coumarin labeled peptides, individual plates

CC(C)C[C@@H]1NC(=O)[C@H](CCC(N)=O)NC(=O)[C@H](CCCNC(=N)N)NC(=O)[C@@H]2CSCCC(=O)N3CN(CN(C3)C(=O)CCSC[C@H](NC(=O)[C@@H](N)CCCNC(=N)N)C(=O)N[C@@H](Cc3ccccc3)C(=O)N[C@@H](CCCNC(=N)N)C(=O)N[C@@H](CC(C)C)C(=O)N3CCC[C@H]3C(=O)N2)C(=O)CCSC[C@@H](C(=O)N[C@@H](CCCNC(=N)N)C(N)=O)NC(=O)[C@H](CCCNC(=N)N)NC1=O [FXII618]
IC50 [1, 4]: 290 nM and 312 nM and 236 nM and 289 nM and 257 nM and 228 nM and 245 nM and 286 nM and 358 nM | Ki ([1]; purified peptide without coumarin label, read-out: Ki mouse FXIIa): 86 ± 9 nM | IC50 [2, 4]: 18.4 nM and 23.5 nM and 23.3 nM and 27.9 nM | Residual activity of human FXIIa ([2]; inhibitor 0.488281 nM, 0.000488281 µM): 96.6624% and 92.9553% | remaining activity at 0.000488281 µM ([2]; inhibitor 0.488281 nM, read-out: Residual activity of human FXIIa): 98.6% | Residual activity of human FXIIa ([2]; inhibitor 1.95312 nM, 0.00195312 µM): 84.5129% and 82.3772% | remaining activity at 0.00195312 µM ([2]; inhibitor 1.95312 nM, read-out: Residual activity of human FXIIa): 85.8% | Residual activity of human FXIIa ([2]; inhibitor 3.90625 nM, 0.00390625 µM): 70.1534% and 69.6521% | remaining activity at 0.00390625 µM ([2]; inhibitor 3.90625 nM, read-out: Residual activity of human FXIIa): 75.7% | Residual activity of human FXIIa ([2]; inhibitor 7.8125 nM, 0.0078125 µM): 55.0198% and 53.6523% | remaining activity at 0.0078125 µM ([2]; inhibitor 7.8125 nM, read-out: Residual activity of human FXIIa): 59.1% | Residual activity of human FXIIa ([2]; inhibitor 15.625 nM, 0.015625 µM): 36.7931% and 38.5109% | remaining activity at 0.015625 µM ([2]; inhibitor 15.625 nM, read-out: Residual activity of human FXIIa): 39.2% | Residual activity of human FXIIa ([2]; inhibitor 31.25 nM, 0.03125 µM): 21.9721% and 22.4384% | remaining activity at 0.03125 µM ([2]; inhibitor 31.25 nM, read-out: Residual activity of human FXIIa): 24.9% | Residual activity of human FXIIa ([2]; inhibitor 62.5 nM, 0.0625 µM): 12.1968% and 13.3118% | remaining activity at 0.0625 µM ([2]; inhibitor 62.5 nM, read-out: Residual activity of human FXIIa): 14% | Residual activity of human FXIIa ([2]; inhibitor 125 nM, 0.125 µM): 6.613% and 11.4379% | remaining activity at 0.125 µM ([2]; inhibitor 125 nM, read-out: Residual activity of human FXIIa): 7.65% | remaining activity at […] ([2]; inhibitor 250 nM, read-out: Residual activity of human FXIIa): 3.83% | Residual activity of human FXIIa ([2]; inhibitor 500 nM, 0.5 µM): 2.542% and 2.502% | remaining activity at 0.5 µM ([2]; inhibitor 500 nM, read-out: Residual activity of human FXIIa): 2.52% | Residual activity of human FXIIa ([2]; inhibitor 0.976562 / 0.976563 nM, 0.000976563 µM): 92.5507% and 90.2369% | remaining activity at 0.000976563 µM ([2]; inhibitor 0.976562 / 0.976563 nM, read-out: Residual activity of human FXIIa): 96.2% | Ki ([2]; purified peptide without coumarin label, read-out: Ki human FXIIa): 8.1 ± 0.7 nM | remaining activity at 0.000390625 µM ([3]; peptide 0.390625 nM): 97.5% | remaining activity at 0.00078125 µM ([3]; peptide 0.78125 nM): 99% | remaining activity at 0.0015625 µM ([3]; peptide 1.5625 nM): 99.1% | remaining activity at 0.003125 µM ([3]; peptide 3.125 nM): 96.3% | remaining activity at 0.00625 µM ([3]; peptide 6.25 nM): 94% | remaining activity at 0.0125 µM ([3]; peptide 12.5 nM): 90.3% | remaining activity at […] ([3]; peptide 25 nM): 81.9% | remaining activity at 0.05 µM ([3]; peptide 50 nM): 69.1% | remaining activity at 0.1 µM ([3]; peptide 100 nM): 53% | remaining activity at 0.2 µM ([3]; peptide 200 nM): 35.9% | remaining activity at 0.4 µM ([3]; peptide 400 nM): 22.6%
